Reference: patent US20150045301A1, “METHODS AND USES OF ANP (ATRIAL NATRIURETIC PEPTIDE), BNP (BRAIN NATRIURETIC PEPTIDE) AND CNP (C-TYPE NATRIURETIC PEPTIDE)-RELATED PEPTIDES AND DERIVATIVES THEREOF FOR TREATMENT OF RETINAL DISORDERS AND DISEASES” (KALOS Therapeutics, Inc., priority 2011, published 2015)
Values joined by “and” are separate entries in the source; they are usually repeats but may differ in a detail not shown here. Equal entries are not always repeated. “Also recorded” adds a separate entry of the source.

Tests used:
[1] = tested on: Human Pancreatic Adenocarcinoma Cells (HPAC); test: HPAC cell viability / anti-cell proliferative assay (Calbiochem Rapid Cell Proliferation Kit, OD 450 nm); assay type: cell-based; settings: 48 hours; for Optical Densities in 96_Well Plate, Average: average of 5 wells; for Optical Densities in 96_Well Plate, single well: one of 5 replicate wells
Experimental: Human Pancreatic Adenocarcinoma Cells (HPAC) cells were obtained from ATCC and propagated in Dulbecco's modified Eagle's medium and Ham's F12 medium (DME-F12) (1:1) containing 2.5 mM glutamine, […], 5 ug/mL transferrin, 1 ng/mL EGF (epidermal growth factor), plus 5% FBS (fetal bovine serum). Cell cultures were incubated at 37° C., 5% CO2 in a 100% humidity atmosphere. The cells were routinely brought to confluence in T-flasks, rinsed with phosphate buffered saline(PBS), and treated with trypsin for 5 min at room temp. The trypsinized cells were rinsed from the plate with 10 mL medium and counted. Viability at subculturing was generally ≧95%.
Approximately 10,000 cells in 100 uL of medium were placed in each well of a 96-well plate and incubated over night. Peptides having the following sequences were used: Arg-15-Cys (RSSCAGAALSPLGAC); Pro-15-Val (PNEEAGAALSPLPEV); Ala-8-Leu (AGALSPL); C-ANP 4-23 ([…]) and, VDL ([…]). The peptides were dissolved in PBS and sterile filtered. The peptides were diluted into the cell culture medium to the following final concentrations: 1, 0.3, 0.1, 0.03, and 0.01 uM. Each peptide was tested in 5 replicate wells. The cultures were incubated for an additional 48 hours at 37° C.
The viability of the cells was determined using a Calbiochem Rapid Cell Proliferation Kit (catalog number QIA127). Ten uL of Calbiochem color reagent was added to each well and incubated for an additional 1.5 hours at 37° C. Optical densities were read at 450 nm using a Molecular Devices ThermoMax microplate reader. The plate template is shown in Table I (unlabeled wells contained cells but no peptide and were used as blanks). Results are presented in Table I, and are graphically illustrated in FIGS. 1 and 2.

cancer cells [2] = test: Anti-cancer activity of peptides with the conserved motif (cell proliferative assay); assay type: cell-based; settings: statement in the description
Description: This example describes activity of peptides having a conserved motif and conserved amino acids predicted to be functional in the motif. (Table III). This example also describes additional exemplary peptide sequences having a conserved motif predicted to have activity (Table IV). Notations “Res 1, Res 2” etc., herein refer by single letter abbreviation the amino acid in the exemplary peptide 8-mer. “Activity” can be determined by a cell proliferative assay, such as an assay described herein or known to one of skill in the art. Of course, peptides exemplified in Table IV can include the conserved motif peptide as part of a larger protein. The SEQ ID NO is the same as the peptide number. Each of these exemplary peptides can be analyzed in vitro, ex vivo, and in vivo for anti-cell proliferative activity using an assay, such as a cell based in vitro assay described in Examples 1 or 4.

[3] = tested on: Human RPE cells (ARPE-19); test: Transepithelial electrical resistance (TEER) of RPE cell layer treated with VEGF; assay type: cell-based; settings: ARPE-19 cell layer, VEGF 10 ng/ml
NPRC = molecular target: T1, NPRC (Homo sapiens, UniProt P17342); settings: comparison between natriuretic peptides, Vesely 2008; cited from earlier work
T1 sequence (P17342 27-541): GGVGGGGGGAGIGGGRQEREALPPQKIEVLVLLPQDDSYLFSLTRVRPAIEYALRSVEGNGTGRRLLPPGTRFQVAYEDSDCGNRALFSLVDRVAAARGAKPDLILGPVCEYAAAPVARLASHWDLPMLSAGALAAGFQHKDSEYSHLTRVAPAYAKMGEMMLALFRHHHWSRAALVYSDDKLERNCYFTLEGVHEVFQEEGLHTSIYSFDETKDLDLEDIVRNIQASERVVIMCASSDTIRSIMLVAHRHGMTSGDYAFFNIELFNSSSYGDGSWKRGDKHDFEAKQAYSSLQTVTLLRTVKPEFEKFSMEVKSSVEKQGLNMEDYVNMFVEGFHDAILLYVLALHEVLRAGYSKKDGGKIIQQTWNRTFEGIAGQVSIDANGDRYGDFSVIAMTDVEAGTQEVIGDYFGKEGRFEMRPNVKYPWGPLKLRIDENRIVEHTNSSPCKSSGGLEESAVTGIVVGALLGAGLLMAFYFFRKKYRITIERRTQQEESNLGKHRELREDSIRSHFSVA

cancer cells [4] = settings: comparison between natriuretic peptides, Vesely 2008; cited from earlier work

Substance	Optical Densities in 96_Well Plate, Average ([1]; peptide 0.01 μM)	Optical Densities in 96_Well Plate, single well ([1]; peptide 0.01 μM)	Optical Densities in 96_Well Plate, Average ([1]; peptide 0.03 μM)	Optical Densities in 96_Well Plate, single well ([1]; peptide 0.03 μM)	Optical Densities in 96_Well Plate, Average ([1]; peptide 0.1 μM)	Optical Densities in 96_Well Plate, single well ([1]; peptide 0.1 μM)	Optical Densities in 96_Well Plate, Average ([1]; peptide 0.3 μM)	Optical Densities in 96_Well Plate, single well ([1]; peptide 0.3 μM)	Optical Densities in 96_Well Plate, Average ([1]; peptide 1.0 μM)	Optical Densities in 96_Well Plate, single well ([1]; peptide 1.0 μM)	Activity of peptides sharing the conserved motif (cancer cells [2])	Effect on transepithelial electrical resistance (TEER) [3]	Relative binding affinity at NPRC (NPRC)	Relative potency of NPs (cancer cells [4])
RSSCAGAALSPLGAC [Arg-15-Cys]	0.934	0.974 and 0.920 and 0.863 and 0.840 and 1.075	0.982	1.093 and 0.894 and 0.789 and 0.955 and 1.178	0.950	1.016 and 0.917 and 0.801 and 0.990 and 1.025	0.897	0.988 and 0.957 and 0.668 and 0.913 and 0.959	0.962	1.155 and 1.005 and 0.787 and 0.944 and 0.919	–	–	–	–
KP: ANP-related peptide; motif in Table III LKSKLRAL (SSDRSALLKSKLRALLTAPR; Kaliuretic peptide; UniProt P01160 104-123, looked up)	–	–	–	–	–	–	–	–	–	–	have activity	–	–	–
VEGF	–	–	–	–	–	–	–	–	–	–	–	lowered resistance	–	–
EVVPPQVLSEPNEEAGAALSPLPEVPPWTGEVSPAQR [KT-220 (VDL), vessel dilator VDL]	–	–	–	–	–	–	–	–	–	–	have activity	–	–	–
CNP: C-type natriuretic peptide; motif in Table III FGLKLDRI	–	–	–	–	–	–	–	–	–	–	have activity; also recorded: less active than ANP, LANP, KP or VDL	–	higher binding affinity than BNP specifically at NPRC	greater potency of CNP than BNP
PNEEAGAALSPLPEV [Pro-15-Val]	0.916	0.907 and 0.905 and 0.633 and 1.209 and 0.928	0.894	0.892 and 0.765 and 0.693 and 1.151 and 0.970	0.918	0.680 and 0.895 and 0.893 and 1.156 and 0.964	0.916	0.875 and 0.817 and 0.855 and 1.024 and 1.010	0.948	0.856 and 0.752 and 0.802 and 1.083 and 1.248	–	–	–	–
AGALSPL [Ala-8-Leu, 8-mer conserved motif peptide]	0.937	0.744 and 0.878 and 1.000 and 0.892 and 1.169	0.976	0.892 and 0.937 and 0.989 and 0.921 and 1.139	0.991	0.832 and 1.006 and 1.031 and 0.910 and 1.174	1.002	0.784 and 0.802 and 0.998 and 1.357 and 1.070	0.985	0.732 and 1.216 and 0.954 and 0.834 and 1.189	–	–	–	–
RSSCFGGRIDRIGAC [C-ANP 4-23, the ANP analog, reference compound]	0.938	0.877 and 0.971 and 0.953 and 0.932 and 0.958	0.932	0.905 and 0.882 and 0.981 and 0.948 and 0.943	0.942	0.758 and 1.027 and 0.983 and 0.960 and 0.982	0.942	0.840 and 0.928 and 1.035 and 0.975 and 0.932	0.925	0.865 and 0.925 and 0.900 and 0.955 and 0.981	have activity	–	–	–
BNP: brain natriuretic peptide; motif in Table III FGKRMDRI	–	–	–	–	–	–	–	–	–	–	have activity	–	–	–
LANP: ANP-related peptide; motif in Table III FKNLLDHL (NPMYNAVSNADLMDFKNLLDHLEEKMPLED; Long-acting natriuretic peptide; UniProt P01160 26-55, looked up)	–	–	–	–	–	–	–	–	–	–	have activity	–	–	–
